Data taken from PubChem BioAssay AID2418 (NMMLSC, 2010).
Active and inactive are the calls of the source.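 The calls were made as follows: active = compounds reducing bradykinin-triggered filopodia by more than 10% inhibition at 10 microM; inactive = the rest.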

System: Swiss 3T3 bradykinin-induced filopodia, phalloidin imaging
Assay: inhibition of bradykinin-induced filopodia formation, orthogonal assay for Ras-related GTPase inhibitor project, imaging, 3T3 cells, bradykinin stimulation (AID 2418)
Settings: at 10 µM; stronger effect = higher value

| Compound | inhibition |
| --- | --- |
| COc1ccc(C2CC(c3ccccc3)=NN2c2ccc(S(N)(=O)=O)cc2)cc1 (stereo not drawn) | 56% |
| Cc1ccc(C2CC(c3ccccc3)=NN2c2ccc(S(N)(=O)=O)cc2)cc1 (stereo not drawn) | -11% (inactive) |
| Cc1cccc(C2CC(c3ccccc3)=NN2c2ccc(S(N)(=O)=O)cc2)c1 (stereo not drawn) | 19% |
